Experimental findings from US20040102423A1, “Spironolactone and angiotensin II antagonist combination therapy for treatment of congestive heart failure” (G.D. Searle & Co., priority 1995, published 2004) are described below.

The IC50 is the concentration at which inhibition is half-maximal.

Where two headings read alike, the source gives them in different places.

The target in assay [1] is angiotensin II AT1 receptor. The experiment in a line: Assay A: Angiotensin II binding activity, rat uterine membrane preparation, 125I-AII displacement. The method, then:
Assay A: Antiotensin II Binding Activity
Compounds of the invention were tested for ability to bind to the smooth muscle angiotensin II receptor using a rat uterine membrane preparation. […] Rat uterine membranes were prepared from fresh tissue. All procedures were carried out at 4° C. Uteri were stripped of fat and homogenized in phosphate-buffered saline at pH 7.4 containing 5 mM EDTA. The homogenate was centrifuged at 1500×g for 20 min., and the supernatant was recentrifuged at 100,000×g for 60 min. The pellet was resuspended in buffer consisting of 2 mM EDTA and 50 mM Tris-HCl (pH 7.5) to a final protein concentration of 4 mg/ml. […] The reaction was initiated by the addition of membrane protein and the mixture was incubated at 25° C. for 60 min. The incubation was terminated with ice-cold 50 mM Tris-HCl (pH 7.5) and the mixture was filtered to separate membrane-bound labelled peptide from the free ligand. The incubation tube and filter were washed with ice-cold buffer. Filters were assayed for radioactivity in a Micromedic gamma counter. Nonspecific binding was defined as binding in the presence of 10 μM of unlabelled AII. Specific binding was calculated as total binding minus nonspecific binding. […] Binding data were analyzed by a nonlinear least-squares curve fitting program.

For assay [2], the system named is pressor response to AII. The experiment in a line: Assay C: In vivo intragastric pressor assay response for AII antagonists. Also on record: species or system Sprague-Dawley rats. The note with it: for inhibition in vivo at 30 mg/kg: read-out: Assay C Inhibition.
Setting [3] is: Rattus norvegicus, po, in vivo pressor response, 3 mg/kg intragastrically.
The mark [4] stands for this setting: in vivo pressor response, 3 mg/kg intragastrically.
Setting [5] is: Rattus norvegicus, intraduodenal, in vivo pressor response, 30 mg/kg intraduodenally.
The mark [6] stands for this setting: in vivo pressor response, 30 mg/kg intraduodenally.

The compound `CCCn1nc(C(F)(F)CCC)nc1Cc1ccc(-c2ccccc2-c2nnn[nH]2)nc1` [Compound 180] gave an IC50 in assay [1] of 20 nM. In assay [2] (setting [3]), this compound registered an inhibition in vivo at 3 mg/kg of 25%. In addition, the “Assay C Duration” value in assay [2] (setting [4]) was determined as 180 min.

`CCCCc1nc(CCCC)n(Cc2ccc(-n3ccc(-c4nnn[nH]4)c3)cc2)n1` [Compound 153]: the IC50 in assay [1] was 13 nM. In assay [2] (setting [3]), this compound registered an inhibition in vivo at 3 mg/kg of 25%. Besides, the “Assay C Duration” value in assay [2] (setting [4]) is over 180 min.

Take `CCCCn1cc(CCC(C)C)n(Cc2ccc(-c3ccccc3-c3nnn[nH]3)nc2)c1=O` [Compound 200]: the IC50 in assay [1] was 20 nM. The compound further showed an inhibition in vivo at 3 mg/kg in assay [2] (setting [3]) of 45%. For the same compound, the “Assay C Duration” value in assay [2] (setting [4]) is over 180 min.

`CCCCc1cn(CCc2ccccc2)c(=O)n1Cc1ccc(-c2ccccc2-c2nnn[nH]2)nc1` [Compound 221]: in assay [1], the IC50 is 4.8 nM. The inhibition in vivo at 3 mg/kg in assay [2] (setting [3]) was determined as 25%. The “Assay C Duration” value in assay [2] (setting [4]) was over 180 min.

With `CCCCc1nc(-c2ccccc2)n(Cc2ccc(-c3ccccc3-c3nnn[nH]3)nc2)n1` [Compound 271], the IC50 in assay [1] worked out at 14 nM. In assay [2] (setting [3]), this compound showed an inhibition in vivo at 3 mg/kg of 20%.

Turning to `CCCCc1nc(CCCC)n(Cc2ccc(-c3ccccc3-c3nnn[nH]3)cn2)n1` [Compound 250], in assay [1], the IC50 worked out at 43 nM. This compound yielded an inhibition in vivo at 3 mg/kg in assay [2] (setting [3]) of 0%.

Consider `CCCCc1cn(CCC2=CCCC2)c(=O)n1Cc1ccc(-c2ccccc2-c2nnn[nH]2)nc1` [Compound 223], for which, in assay [1], the IC50 is 14 nM. This compound yielded an inhibition in vivo at 3 mg/kg in assay [2] (setting [3]) of 20%. Further, the “Assay C Duration” value in assay [2] (setting [4]) is over 180 min.

With `C[C@]12CCC(=O)C=C1C1CC1[C@H]1[C@@H]3CC[C@@]4(CCC(=O)O4)[C@@]3(C)CC3O[C@]312` (some centres unmarked) [Compound 9], in assay [1], the IC50 came out at 700 nM. The inhibition in vivo at 30 mg/kg in assay [2] (setting [5]) stood at 80%. In assay [2] (Rattus norvegicus, intraduodenal, in vivo pressor response, 100 mg/kg intraduodenally), this compound registered an inhibition in vivo at 100 mg/kg of 100%. The “Assay C Duration” value was determined as 75 min in assay [2] (setting [6]) and 130 min in assay [2] (in vivo pressor response, 100 mg/kg intraduodenally).

Take `CCCCc1cn(CCCC)c(=O)n1Cc1ccc(-c2cnccc2-c2nnn[nH]2)cc1` [Compound 236]: the 50% inhibitory concentration (IC50) in assay [1] is 4.9 nM. Moreover, the inhibition in vivo at 3 mg/kg in assay [2] (setting [3]) stood at 70%. Moreover, in assay [2] (setting [4]), the “Assay C Duration” value is over 180 min.

With `CCCCc1cn(-c2ccccc2C(C)C)c(=O)n1Cc1ccc(-c2ccccc2-c2nnn[nH]2)nc1` [Compound 230], the IC50 in assay [1] turned out to be 2.6 nM. The same compound registered an inhibition in vivo at 3 mg/kg in assay [2] (setting [3]) of 25%. Further, in assay [2] (setting [4]), the “Assay C Duration” value is over 180 min.

In assay [1], `CCn1nc(C(C)(F)F)nc1Cc1ccc(-c2ccccc2-c2nnn[nH]2)nc1` [Compound 175] yielded an IC50 of 27 nM. Further, the inhibition in vivo at 3 mg/kg in assay [2] (setting [3]) amounted to 0%. The “Assay C Duration” value in assay [2] (setting [4]) was 0 min.

For the compound `CCCCc1nc(CCCC)n(Cc2ccc(-c3ncccc3-c3nnn[nH]3)cc2)n1` [Compound 256], in assay [1], the IC50 was 4.1 nM. In assay [2] (setting [3]), the inhibition in vivo at 3 mg/kg was found to be 30%. For the same compound, the “Assay C Duration” value in assay [2] (setting [4]) is over 180 min.

In assay [1], `CCCCn1cc(CCC2CC2)n(Cc2ccc(-c3ccccc3-c3nnn[nH]3)nc2)c1=O` [Compound 204] showed an IC50 of 16 nM. The compound also registered an inhibition in vivo at 3 mg/kg in assay [2] (setting [3]) of 75%. Also, the “Assay C Duration” value in assay [2] (setting [4]) is over 180 min.

`CCCCn1nc(C(O)CCC)nc1Cc1ccc(-c2ccccc2-c2nnn[nH]2)nc1` (centres unmarked) [Compound 170]: the IC50 in assay [1] amounted to 26 nM. The same compound registered an inhibition in vivo at 3 mg/kg in assay [2] (setting [3]) of 40%. Also, the “Assay C Duration” value in assay [2] (setting [4]) was over 180 min.

Regarding `COC(=O)[C@@H]1CC2=CC(=O)CC[C@]2(C)C23O[C@@H]2C[C@@]2(C)[C@@H](CC[C@@]2(O)CCC(=O)O)[C@H]13.[K+]` (some centres unmarked) [Compound 5], in assay [1], the IC50 was determined as 200 nM. Further, the inhibition in vivo at 30 mg/kg in assay [2] (Rattus norvegicus, intraduodenal) is 38%. Moreover, the “Assay C Duration” value in assay [2] (setting [6]) is 20 to 30 min.

In assay [1], `CCCCc1cn(C(C)(C)C)c(=O)n1Cc1ccc(-c2ccccc2-c2nnn[nH]2)nc1` [Compound 212] gave an IC50 of 23 nM. The same compound displayed an inhibition in vivo at 3 mg/kg in assay [2] (setting [3]) of 15%. The “Assay C Duration” value in assay [2] (setting [4]) amounted to 180 min.

Compound `CCOC(=O)[C@@H]1CC2=CC(=O)CC[C@]2(C)C23O[C@@H]2C[C@@]2(C)[C@@H](CC[C@@]24CCC(=O)O4)[C@H]13` (some centres unmarked) [Compound 10] yielded a concentration for half-maximal inhibition (IC50) in assay [1] of 4.9 nM. Also, in assay [2] (Rattus norvegicus, intraduodenal, in vivo pressor response, 3 mg/kg intraduodenally), the inhibition in vivo at 3 mg/kg is 86%. In addition, the inhibition in vivo at 30 mg/kg in assay [2] (setting [5]) stood at 100%. Further, the “Assay C Duration” value turned out to be 100 min in assay [2] (in vivo pressor response, 3 mg/kg intraduodenally) and 240 min in assay [2] (setting [6]).

Regarding `CCCCc1cn(CCc2cccs2)c(=O)n1Cc1ccc(-c2ccccc2-c2nnn[nH]2)nc1` [Compound 220], in assay [1], the IC50 was 7 nM. In assay [2] (setting [3]), the inhibition in vivo at 3 mg/kg turned out to be 75%. Further, the “Assay C Duration” value in assay [2] (setting [4]) is 120 min.

In assay [1], `CCCCn1nc(C(OC)OC)nc1Cc1ccc(-c2ccccc2-c2nnn[nH]2)nc1` [Compound 186] came in with an IC50 of 38 nM. The same compound gave an inhibition in vivo at 3 mg/kg in assay [2] (setting [3]) of 25%. For the same compound, in assay [2] (setting [4]), the “Assay C Duration” value stood at 18 min.

For `CCCCc1cn(-c2c(F)cccc2F)c(=O)n1Cc1ccc(-c2ccccc2-c2nnn[nH]2)nc1` [Compound 231], the IC50 in assay [1] worked out at 3.6 nM. The inhibition in vivo at 3 mg/kg in assay [2] (setting [3]) was 75%. Further, the “Assay C Duration” value in assay [2] (setting [4]) is over 180 min.

`CCCCc1cn(CCCC)c(=O)n1Cc1ccc(-c2cccnc2-c2nnn[nH]2)cc1` [Compound 238] displayed an IC50 in assay [1] of 1.7 nM. The compound also came in with an inhibition in vivo at 3 mg/kg in assay [2] (setting [3]) of 15%. Besides, the “Assay C Duration” value in assay [2] (setting [4]) was over 180 min.

Regarding `CCCCc1cn(CCC2CC2)c(=O)n1Cc1ccc(-c2ccccc2-c2nnn[nH]2)nc1` [Compound 217], the IC50 in assay [1] was determined as 9.4 nM. In assay [2] (setting [3]), this compound had an inhibition in vivo at 3 mg/kg of 65%. The “Assay C Duration” value in assay [2] (setting [4]) is over 180 min.

On to `CCCCn1nc(C(C)(OC)OC)nc1Cc1ccc(-c2ccccc2-c2nnn[nH]2)nc1` [Compound 193], for which the IC50 in assay [1] was found to be 11 nM. In assay [2] (setting [3]), the inhibition in vivo at 3 mg/kg is 10%. In assay [2] (setting [4]), the “Assay C Duration” value was 180 min.

`CCCCc1nc2c(O)nnc(CCC)c2n1Cc1ccc(-c2ccccc2-c2nnn[nH]2)cc1` [Compound 125] had an inhibition in vivo at 3 mg/kg in assay [2] (setting [3]) of 35%. Also, the “Assay C Duration” value in assay [2] (setting [4]) is over 240 min.

In turn, `CCCCn1nc(C(F)(F)CCC)nc1Cc1ccc(-c2ccccc2-c2nnn[nH]2)nc1` [Compound 181] yielded a 50% inhibitory concentration (IC50) in assay [1] of 21 nM. The inhibition in vivo at 3 mg/kg in assay [2] (setting [3]) came out at 20%. Moreover, the “Assay C Duration” value in assay [2] (setting [4]) was determined as 180 min.

In the case of `CCCCn1nc(CCC)nc1Cc1ccc(-c2ccccc2-c2nnn[nH]2)nc1` [Compound 163], in assay [1], the IC50 came out at 420 nM.

On to `C[C@]12CCC(=O)C=C1C1CC1[C@H]1[C@@H]3CC[C@@](O)(CCC(=O)O)[C@@]3(C)CC3O[C@]312` (some centres unmarked) [Compound 8], for which, in assay [1], the IC50 came out at 17000 nM.

In assay [1], `CCCCc1nc(CC(CC)CC)n(Cc2ccc(-c3ccccc3-c3nnn[nH]3)nc2)n1` [Compound 263] yielded a half-inhibitory concentration (IC50) of 57 nM.

For the compound `CCCCc1cn(CCC2CCCC2)c(=O)n1Cc1ccc(-c2ccccc2-c2nnn[nH]2)nc1` [Compound 222], the IC50 in assay [1] came to 5 nM.

On to `CCCCc1nc(CCc2ccccc2)nn1Cc1ccc(-c2ccccc2-c2nnn[nH]2)nc1` [Compound 264], for which the IC50 in assay [1] amounted to 11 nM.

Consider `CCCCc1nc(CCCC2CCCCC2)n(Cc2ccc(-c3ccccc3-c3nnn[nH]3)cc2)n1` [Compound 68], for which, in assay [1], the IC50 was determined as 8.6 nM.

For the compound `CCCCc1cn(C2C3CC4CC(C3)CC2C4)c(=O)n1Cc1ccc(-c2ccccc2-c2nnn[nH]2)nc1` (centres unmarked) [Compound 224], the IC50 in assay [1] was 91 nM.
